In paper PMC2288882 (The Journal of Cell Biology, 1991):
pIC50: −log10 of the molar value.

Columns and labels:
Format in all cases: binding
[1] = target: Torpedo AChR αδ subunit combination (Tetronarce californica, UniProt P02710+P02718); experiment: biochemical
[2] = target: Torpedo AChR αγ subunit combination (Tetronarce californica, UniProt P02710+P02714); experiment: biochemical
[3] = target: native Torpedo AChR (all four subunits) (Tetronarce californica, UniProt P02710+P02714+P02718); conditions: extracts of oocytes expressing all four AChR subunits; Fig. 1 A
Sequence of native Torpedo AChR (all four subunits) (P02710 25-461): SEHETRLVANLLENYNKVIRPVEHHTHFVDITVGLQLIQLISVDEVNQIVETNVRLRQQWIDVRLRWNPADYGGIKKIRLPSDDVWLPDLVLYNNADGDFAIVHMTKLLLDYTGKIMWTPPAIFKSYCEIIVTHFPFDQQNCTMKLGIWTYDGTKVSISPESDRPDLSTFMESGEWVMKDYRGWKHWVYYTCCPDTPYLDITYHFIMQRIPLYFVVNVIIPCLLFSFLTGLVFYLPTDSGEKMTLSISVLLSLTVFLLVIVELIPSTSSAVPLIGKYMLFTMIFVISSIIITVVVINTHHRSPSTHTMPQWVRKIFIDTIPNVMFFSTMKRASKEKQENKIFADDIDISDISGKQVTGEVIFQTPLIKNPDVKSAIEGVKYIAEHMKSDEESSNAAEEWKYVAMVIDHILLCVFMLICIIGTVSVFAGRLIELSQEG
Sequence of native Torpedo AChR (all four subunits) (P02712 25-493, further chain): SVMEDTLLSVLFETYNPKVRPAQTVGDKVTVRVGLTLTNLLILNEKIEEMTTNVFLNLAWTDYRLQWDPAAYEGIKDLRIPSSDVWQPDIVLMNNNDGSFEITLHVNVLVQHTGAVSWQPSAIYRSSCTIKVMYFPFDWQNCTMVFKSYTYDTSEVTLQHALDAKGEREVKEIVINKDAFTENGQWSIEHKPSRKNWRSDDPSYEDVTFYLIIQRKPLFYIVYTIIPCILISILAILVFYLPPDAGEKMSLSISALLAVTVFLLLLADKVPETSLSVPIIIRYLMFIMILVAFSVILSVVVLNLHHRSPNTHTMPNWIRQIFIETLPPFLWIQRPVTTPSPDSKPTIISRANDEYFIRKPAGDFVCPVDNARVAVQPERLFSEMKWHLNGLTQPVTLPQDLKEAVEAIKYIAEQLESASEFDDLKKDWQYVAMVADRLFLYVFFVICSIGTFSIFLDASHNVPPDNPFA
Sequence of native Torpedo AChR (all four subunits) (P02718 22-522): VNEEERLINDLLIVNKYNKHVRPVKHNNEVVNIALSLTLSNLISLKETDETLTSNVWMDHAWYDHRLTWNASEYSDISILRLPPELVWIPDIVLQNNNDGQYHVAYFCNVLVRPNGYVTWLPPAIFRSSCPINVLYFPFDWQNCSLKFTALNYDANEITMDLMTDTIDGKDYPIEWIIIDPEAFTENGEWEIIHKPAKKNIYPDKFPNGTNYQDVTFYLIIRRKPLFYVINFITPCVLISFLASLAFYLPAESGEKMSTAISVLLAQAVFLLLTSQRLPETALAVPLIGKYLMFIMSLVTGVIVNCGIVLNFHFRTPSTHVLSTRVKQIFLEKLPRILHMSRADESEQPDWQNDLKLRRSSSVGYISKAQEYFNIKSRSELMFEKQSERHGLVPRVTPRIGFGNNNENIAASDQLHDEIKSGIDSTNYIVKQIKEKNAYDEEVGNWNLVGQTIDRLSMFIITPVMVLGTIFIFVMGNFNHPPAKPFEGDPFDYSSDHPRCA
Sequence of native Torpedo AChR (all four subunits) (P02714 18-506): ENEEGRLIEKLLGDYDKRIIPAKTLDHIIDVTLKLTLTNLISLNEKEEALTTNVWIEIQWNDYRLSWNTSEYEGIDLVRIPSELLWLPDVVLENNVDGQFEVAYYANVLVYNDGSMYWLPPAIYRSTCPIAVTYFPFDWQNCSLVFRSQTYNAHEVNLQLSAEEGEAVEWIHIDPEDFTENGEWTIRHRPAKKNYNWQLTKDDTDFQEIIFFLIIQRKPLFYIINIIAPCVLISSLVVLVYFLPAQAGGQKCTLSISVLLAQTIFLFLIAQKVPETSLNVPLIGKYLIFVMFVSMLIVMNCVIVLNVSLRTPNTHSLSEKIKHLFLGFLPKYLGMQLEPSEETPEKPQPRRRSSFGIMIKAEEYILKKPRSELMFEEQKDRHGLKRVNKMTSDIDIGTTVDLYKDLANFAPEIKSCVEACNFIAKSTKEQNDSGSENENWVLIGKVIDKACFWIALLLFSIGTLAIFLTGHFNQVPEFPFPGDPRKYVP

Sequence of Torpedo AChR αγ subunit combination (P02710 25-461): as the sequence (P02710 25-461) above
Sequence of Torpedo AChR αγ subunit combination (P02714 18-506): as the sequence (P02714 18-506) above
Sequence of Torpedo AChR αδ subunit combination (P02718 22-522): as the sequence (P02718 22-522) above
Sequence of Torpedo AChR αδ subunit combination (P02710 25-461): as the sequence (P02710 25-461) above

Compound: COc1cc2c3cc1Oc1cc(ccc1O)C[C@@H]1c4c(cc(OC)c(O)c4Oc4ccc(cc4)C[C@@H]3N(C)CC2)CC[N+]1(C)C [curare]
- pIC50 [1]: 3.70
- pIC50 [2]: ~4.70
- shape of curare inhibition curve of αBgt binding [3]: biphasic curve
